The values that follow come from US12162876B2, “Indazole kinase inhibitor and use thereof” (Tarapeutics Science Inc., priority 2018, dated 2024).

In one series the test system is TEL-cKIT-BaF3. Description: Cell proliferation (CCK-8, 72 h), TEL-cKIT-BaF3. It counts as cell-based. The settings on record: Mus musculus, BaF3 expressing wild-type C-KIT kinase. An excerpt: (§1) In this example, human gastrointestinal stromal tumor cell line GIST-T1 (expressing wild-type C-KIT gene) (purchased from Cosmo Bio Co., Ltd. (Japan)), human gastrointestinal stromal tumor cell line GIST-T1-T670I (expressing C-KIT-T670I mutant gene) (constructed by our laboratory with CRISPR technology), mouse […] BaF3 (purchased from ATCC) were used. In addition, in this Example, mouse Tel-cKit-BaF3 (stably expressing C-KIT wild-type kinase), mouse Tel-cKit/T670I-BaF3 (stably expressing cKIT T670I mutant kinase), mouse Tel-PDGFRα-BaF3 (stably expressing PDGFRα kinase), mouse Tel-PDGFRβ-BaF3 (stably expressing PDGFRβ kinase), mouse Tel-VEGFR2-BaF3 (stably expressing VEGFR2 kinase), mouse Tel-FLT3-BaF3 (stably expressing FLT3 kinase) were also used. The above cell lines were all constructed by our laboratory. The construction method was as follows: the human C-KIT, C-KIT T670I, PDGFRα, PDGFRβ, VEGFR2, FLT3 kinase region sequences were amplified by PCR respectively and inserted into MSCV-Puro vector (purchased from Clontech) with N-terminal TEL fragment and/or NPM fragment and/or TPR fragment respectively, which was stably transferred into mouse BaF3 cells by retroviral method, and IL-3 growth factor was removed, and finally the cell lines in which protein was transferred depending on C-KIT, C-KIT/T670I, PDGFRα, PDGFRβ, VEGFR2, FLT3 were obtained. The GIST-T1-T670I (expressing C-KIT-T670I mutant gene) cell line was constructed by our laboratory. The construction method was as follows: the sgRNA targeting near the T670 site of the KIT gene was designed by the CRISPR design tool of the Zhang Feng Laboratory of the Massachusetts Institute of Technology (URL: crispr.mit.edu) and cloned into pSpCas9(BB)-2A-Puro vector (Addgene, USA); the obtained vector and a single-stranded oligonucleotide with T670I mutation near the T670 site were co-transfected into the cells, and after antibiotic selection, they were diluted and cultured in a single cell in a 96-well plate; the T670 site of the cells was sequenced and verified by the Sanger sequencing method.

In series [1] the test system is TEL-cKIT/T670I-BaF3. The series is described as follows: TEL-cKIT/T670I-BaF3 cell tumor transplantation mouse model. It counts as in vivo. As to the method:
(§2) (1) 4-6 weeks old Bal b/c female mice were purchased from Beijing Weitong Lihua Experimental Animal Co., Ltd. and were reared in SPF-level laboratories. Drinking water and litter were sterilized by autoclaving. All operations on mice were performed under sterile conditions.
(§3) (2) On day 0, about 5×10^6 TEL-cKIT/T670I-BaF3 or 5×10^6 GIST-T1-T670I cells were injected subcutaneously on the left back of all mice, respectively.
(§4) (3) For the mouse model of TEL-cKIT/T670I-BaF3, starting from day 6, the corresponding mice were orally administered every day methyl cellulose (HKI) vehicle (5 mice); […]; sunitinib (purchased from MedChemExpress, China) at a dose of 40 mg/kg mouse weight (5 mice). For the mouse model of GIST-T1-T670I, starting from day 15, the corresponding mice were orally administered every day methyl cellulose (HKI) vehicle (5 mice); Compound 9 at a dose of 20 mg/kg, 30 mg/kg, 40 mg/kg (5 mice each); sunitinib at a dose of 40 mg/kg mouse weight (5 mice).
(§5) (4) Starting from day 6 (the mouse model of TEL-cKIT/T670I-BaF3) and day 15 (the mouse model of GIST-T1-T670I), the length/width of the subcutaneous tumors was measured with a vernier caliper every day, the body weight of the mice was recorded every day, and the effect of compound 9 on the body weight of the mice was determined respectively.
(§6) (5) The growth trend of […] tumors was calculated, with the calculation method of tumor volume: length×width×width/2 mm^3.

The test system of another series is TEL-VEGFR2-BaF3. The series is described as follows: Cell proliferation (CCK-8, 72 h), TEL-VEGFR2-BaF3. It counts as cell-based. The conditions noted are these: Mus musculus, BaF3 expressing VEGFR2 kinase.
Text: as §1

The test system of series [2] is TEL-cKIT/T670I-BaF3. The series is described as follows: Cell proliferation (CCK-8, 72 h), TEL-cKIT/T670I-BaF3. The conditions noted are these: Mus musculus, BaF3, 72 h, read-out: GI50 TEL-cKIT/T670I-BaF3. It counts as cell-based.
Text: as §1

The test system of series [3] is GIST-T1-T670I. Description: GIST-T1-T670I cell tumor transplantation mouse model. It counts as in vivo. The conditions noted are these: for tumor inhibition rate: 40 mg/kg oral daily. As to the method: as §2, §3, §4, §5, §6
Series [4] deals with GIST-T1-T670I. Description: Cell proliferation (CCK-8, 72 h), GIST-T1-T670I. It counts as cell-based. The conditions noted are these: Homo sapiens, GIST-T1-T670I (C-KIT-T670I mutant, Imatinib-resistant).
Text: as §1

The next series relates to TEL-FLT3-BaF3. Description: Cell proliferation (CCK-8, 72 h), TEL-FLT3-BaF3. The conditions noted are these: Mus musculus, BaF3 expressing FLT3 kinase. It counts as cell-based.
Text: as §1

In a further series the test system is GIST-T1. The series is described as follows: Cell proliferation (CCK-8, 72 h), GIST-T1. It counts as cell-based. The conditions noted are these: Homo sapiens, GISTT1, GIST-T1 (wild-type C-KIT gene).
Text: as §1

A further series relates to BaF3. Description: Cell proliferation (CCK-8, 72 h), parental BaF3. It counts as cell-based. The conditions noted are these: Mus musculus, parental BaF3 cells.
Text: as §1

Take `Cc1nc(NC(=O)CN2CCN(C)CC2)sc1-c1ccc2c(/C=C/c3ccccn3)n[nH]c2c1` [Compound 9, (E)-N-(4-methyl-5-(3-(2-(pyridin-2-yl)vinyl)-1H-indazol-6-yl)thiazol-2-yl)-2-(4-methylpiperazin-1-yl)acetamide]: the GI50 with TEL-cKIT-BaF3 was 923 nM; in the series with TEL-VEGFR2-BaF3, 180 nM; in the series on TEL-cKIT/T670I-BaF3 [2] it was 9 nM; in the series with GIST-T1-T670I [4], 39 nM; in the series on TEL-FLT3-BaF3 it was 1 nM; in the series on GIST-T1, 19 nM. Besides, the GI50 with BaF3 came out at 1400 nM. Besides, the tumor inhibition rate with TEL-cKIT/T670I-BaF3 [1] (40 mg/kg oral daily, with increasing days of treatment) is at most 80%; in the series on TEL-cKIT/T670I-BaF3 [1] (100 mg/kg oral daily, day 11 after administration) it was 100%; with GIST-T1-T670I [3] (day 28 after administration), 84.3%; in the series with GIST-T1-T670I [3] (with increasing days of treatment) it was at most 80%. The “effect on the body weight of mice” value with TEL-cKIT/T670I-BaF3 [1] (oral daily) and in the series on GIST-T1-T670I [3] (oral daily) was “no effect” throughout.
